# Publication PMC12583704 (Signal Transduction and Targeted Therapy, 2025)
# Experiment: Phase 1 study NCT03594422: adverse events graded by NCI CTCAE v4.03
# Assay type: in vivo, human
# Method: Part 1 was a dose-escalation study to determine the recommended phase 2 dose (RP2D) in solid tumors. […] The initial design was a 3 + 3 dose escalation from 20 mg, but the protocol was amended to randomly enroll and assign patients to starting doses of 30, 40, and 50 mg on the basis of safety data acquired in the CML trial.[20] […] An interactive web response system was used for randomization. Part 2 was a nonrandomized study focusing on patients with SDH-deficient GISTs. […] On the basis of preliminary data from adult patients, adolescent patients with advanced wild-type GISTs were also included in Part 2. The dosage for adolescents was adjusted according to their body weights.
# AEs were evaluated at each follow-up visit: on Days 1, 8, 15, and 22 during Cycles 1 and 2; and on Days 1 and 15 in Cycle 3 and all subsequent cycles, up to 30 days after the final dose. All AEs were graded according to the National Cancer Institute Common Terminology Criteria for Adverse Events v4.03. Clinical laboratory investigations for routine blood examinations and serum chemistry parameters were performed during every cycle (on Day 1), during Cycles 1 and 2 (on Days 8, 15, and 22), and 30 days after the last dose of treatment. Urinalysis, coagulation, cardiac troponin I/T, lipase, amylase, and electrocardiographic evaluations were conducted at baseline; during Cycles 1 and 2 (on Days 1 and 15); during Cycles 3, 5, 7, and 9; every three cycles after Cycle 9 (on Day 1); and 14 days after the last dose of treatment. All patients underwent tumor imaging for response assessment via computed tomography or magnetic resonance imaging at screening and every two cycles (8 weeks) until progression or discontinuation. Target and nontarget lesions were assessed per the Response Evaluation Criteria in Solid Tumors version 1.1 (RECIST v1.1).
compound,measurement,setting,value
"Cc1ccc(C(=O)Nc2ccc(CN3CCN(C)CC3)c(C(F)(F)F)c2)cc1C#Cc1cnc2[nH]ncc2c1 [Olverembatinib, 3-[(1H-pyrazolo[3,4-b]pyridin-5-yl)ethynyl]-4-methyl-N-{4-[(4-methylpiperazin-1-yl)methyl]-3-(trifluoromethyl)phenyl]benzamide]",TEAE: Constipation,"40 mg (n = 32), Grade 3-5",0 n (%)
same,TEAE: Fatigue,"40 mg (n = 32), Grade 3-5",1 (3.1) n (%)
same,TEAE: Hyperuricemia,"40 mg (n = 32), Grade 3-5",0 n (%)
same,TEAE: Hypoalbuminemia,"40 mg (n = 32), Grade 3-5",0 n (%)
same,TEAE: Leukocyte count increased,"40 mg (n = 32), Grade 3-5",0 n (%)
same,TEAE: Melanocytic nevus,"40 mg (n = 32), Grade 3-5",0 n (%)
same,TEAE: Neutrophil count increased,"40 mg (n = 32), Grade 3-5",0 n (%)
same,TEAE: Pyrexia,"40 mg (n = 32), Grade 3-5",0 n (%)
same,TEAEs,"40 mg (n = 32), Grade 3-5",12 (37.5) n (%)
same,TRAE: ALT increased,"40 mg (n = 32), Grade 3-5",0 n (%)
same,TRAE: AST increased,"40 mg (n = 32), Grade 3-5",0 n (%)
same,TRAE: Anemia,"40 mg (n = 32), Grade 3-5",0 n (%)
same,TRAE: Blood creatinine increased,"40 mg (n = 32), Grade 3-5",0 n (%)
same,TRAE: Constipation,"40 mg (n = 32), Grade 3-5",0 n (%)
same,TRAE: Fatigue,"40 mg (n = 32), Grade 3-5",1 (3.1) n (%)
same,TRAE: Hypoalbuminemia,"40 mg (n = 32), Grade 3-5",0 n (%)
same,TRAE: Leukocyte count increased,"40 mg (n = 32), Grade 3-5",0 n (%)
same,TRAE: Melanocytic nevus,"40 mg (n = 32), Grade 3-5",0 n (%)
same,TRAE: Neutrophil count increased,"40 mg (n = 32), Grade 3-5",0 n (%)
same,TRAE: Platelet count increased,"40 mg (n = 32), Grade 3-5",0 n (%)
same,TRAE: Pyrexia,"40 mg (n = 32), Grade 3-5",0 n (%)
same,TEAE: Abdominal pain,"50 mg (n = 16), Any grade",3 (18.8) n (%)
same,TEAE: Alanine aminotransferase increased,"50 mg (n = 16), Any grade",6 (37.5) n (%)
same,TEAE: Anemia,"50 mg (n = 16), Any grade",8 (50.0) n (%)
same,TEAE: Aspartate aminotransferase increased,"50 mg (n = 16), Any grade",10 (62.5) n (%)
same,TEAE: C-reactive protein increased,"50 mg (n = 16), Any grade",4 (25.0) n (%)
same,TEAE: Constipation,"50 mg (n = 16), Any grade",7 (43.8) n (%)
same,TEAE: Fatigue,"50 mg (n = 16), Any grade",5 (31.3) n (%)
same,TEAE: Hyperuricemia,"50 mg (n = 16), Any grade",5 (31.3) n (%)
same,TEAE: Hypoalbuminemia,"50 mg (n = 16), Any grade",5 (31.3) n (%)
same,TEAE: Leukocyte count increased,"50 mg (n = 16), Any grade",8 (50.0) n (%)
same,TEAE: Melanocytic nevus,"50 mg (n = 16), Any grade",4 (25.0) n (%)
same,TEAE: Neutrophil count increased,"50 mg (n = 16), Any grade",6 (37.5) n (%)
same,TEAE: Pyrexia,"50 mg (n = 16), Any grade",6 (37.5) n (%)
same,TEAEs,"50 mg (n = 16), Any grade",16 (100.0) n (%)
same,TRAE: ALT increased,"50 mg (n = 16), Any grade",5 (31.3) n (%)
same,TRAE: AST increased,"50 mg (n = 16), Any grade",6 (37.5) n (%)
same,TRAE: Anemia,"50 mg (n = 16), Any grade",4 (25.0) n (%)
same,TRAE: Blood creatinine increased,"50 mg (n = 16), Any grade",1 (6.3) n (%)
same,TRAE: Constipation,"50 mg (n = 16), Any grade",5 (31.3) n (%)
same,TRAE: Fatigue,"50 mg (n = 16), Any grade",5 (31.3) n (%)
same,TRAE: Hypoalbuminemia,"50 mg (n = 16), Any grade",3 (18.8) n (%)
same,TRAE: Leukocyte count increased,"50 mg (n = 16), Any grade",8 (50.0) n (%)
same,TRAE: Melanocytic nevus,"50 mg (n = 16), Any grade",4 (25.0) n (%)
same,TRAE: Neutrophil count increased,"50 mg (n = 16), Any grade",6 (37.5) n (%)
same,TRAE: Platelet count increased,"50 mg (n = 16), Any grade",2 (12.5) n (%)
same,TRAE: Pyrexia,"50 mg (n = 16), Any grade",4 (25.0) n (%)
same,TEAE: Abdominal pain,"50 mg (n = 16), Grade 3-5",0 n (%)
same,TEAE: Alanine aminotransferase increased,"50 mg (n = 16), Grade 3-5",2 (12.5) n (%)
same,TEAE: Anemia,"50 mg (n = 16), Grade 3-5",1 (6.3) n (%)
same,TEAE: Aspartate aminotransferase increased,"50 mg (n = 16), Grade 3-5",2 (12.5) n (%)
same,TEAE: C-reactive protein increased,"50 mg (n = 16), Grade 3-5",0 n (%)
same,TEAE: Constipation,"50 mg (n = 16), Grade 3-5",0 n (%)
same,TEAE: Fatigue,"50 mg (n = 16), Grade 3-5",0 n (%)
same,TEAE: Hyperuricemia,"50 mg (n = 16), Grade 3-5",0 n (%)
same,TEAE: Hypoalbuminemia,"50 mg (n = 16), Grade 3-5",0 n (%)
same,TEAE: Leukocyte count increased,"50 mg (n = 16), Grade 3-5",0 n (%)
same,TEAE: Melanocytic nevus,"50 mg (n = 16), Grade 3-5",0 n (%)
same,TEAE: Neutrophil count increased,"50 mg (n = 16), Grade 3-5",0 n (%)
same,TEAE: Pyrexia,"50 mg (n = 16), Grade 3-5",0 n (%)
same,TEAEs,"50 mg (n = 16), Grade 3-5",9 (56.3) n (%)
same,TRAE: ALT increased,"50 mg (n = 16), Grade 3-5",1 (6.3) n (%)
same,TRAE: AST increased,"50 mg (n = 16), Grade 3-5",1 (6.3) n (%)
same,TRAE: Anemia,"50 mg (n = 16), Grade 3-5",0 n (%)
same,TRAE: Blood creatinine increased,"50 mg (n = 16), Grade 3-5",0 n (%)
same,TRAE: Constipation,"50 mg (n = 16), Grade 3-5",0 n (%)
same,TRAE: Fatigue,"50 mg (n = 16), Grade 3-5",0 n (%)
